One may read the MIC as the least concentration at which growth counts as inhibited.

Consider 23 compounds from ChEMBL document CHEMBL3046429, “Synthesis, molecular modeling study, preliminary antibacterial, and antitumor evaluation of N-substituted naphthalimides and their structural analogues” (2013).

In brackets after ≈: the same amount, converted by molar mass.

What all share (assay type): functional
Assay [1] deals with HOP-92. Put plainly: Growth inhibition of Homo sapiens (human) HOP92 cells at 10 uM after 48 hr by coulter counter analysis. The following applies: HOP-92, 48 h, read-out: GI.
Assay [2] relates to SN12C. Description: Growth inhibition of Homo sapiens (human) SN12C cells at 10 uM after 48 hr by coulter counter analysis. The following applies: read-out: GI.
Assay [3] relates to Pseudomonas aeruginosa. Description: Antibacterial activity against Pseudomonas aeruginosa assessed as growth inhibition after 24 hr by two-fold serial dilution method.
The test system of assay [4] is MCF7. Description: Growth inhibition of Homo sapiens (human) MCF7 cells at 10 uM after 48 hr by coulter counter analysis. Conditions: MCF7, 48 h, read-out: GI.
The subject of assay [5] is Escherichia coli. Put plainly: Antibacterial activity against Escherichia coli assessed as growth inhibition after 24 hr by two-fold serial dilution method. The following applies: for MIC: Escherichia coli, 24 h.
The test system of assay [6] is SNB-75. Description: Growth inhibition of Homo sapiens (human) SNB75 cells at 10 uM after 48 hr by coulter counter analysis. The following applies: SNB-75, 48 h, read-out: GI.
Assay [7] concerns Bacillus subtilis. Description: Antibacterial activity against Bacillus subtilis assessed as growth inhibition after 24 hr by two fold serial dilution method.
Assay [8] relates to NCI-H522. Put plainly: Growth inhibition of Homo sapiens (human) NCI-H522 cells at 10 uM after 48 hr by coulter counter analysis. Conditions: NCI-H522, 48 h, read-out: GI.
In assay [9] the test system is Staphylococcus aureus. Description: Antibacterial activity against Staphylococcus aureus assessed as growth inhibition after 24 hr by two fold serial dilution method. Conditions: for MIC: Staphylococcus aureus, 24 h.
The test system of assay [10] is UO-31. Description: Growth inhibition of Homo sapiens (human) UO31 cells at 10 uM after 48 hr by coulter counter analysis. The following applies: UO-31, 48 h, read-out: GI.

`O=c1c2ccccc2c2ccccc2c(=O)n1-c1c(Cl)cc(Cl)cc1Cl`: the inhibition of growth at 10 µM is 33.6% in assay [1]; -1.37% in assay [2]; -1.42% in assay [4]; 45.6% in assay [6]; 4.08% in assay [8]; 10.8% in assay [10]. Besides, the MIC in [3] came to 10 µg/mL (≈ 24.8 µM); in [5], 2.4 µg/mL (≈ 5.96 µM); in assay [7], 18.5 µg/mL (≈ 45.9 µM); in assay [9], 19 µg/mL (≈ 47.2 µM). The “-logMIC” value in [5] came to 5.22; in assay [9] it was 4.33.

Take `O=C1c2cccc3cccc(c23)C(=O)N1CCc1ccccn1`: the MIC in assay [3], in assay [5], in [7] and in [9] was above 100 µg/mL throughout. Further, the “-logMIC” value in assay [5] and in assay [9] was 3.48 in each case.

Consider `O=C(O)c1ccc(N2C(=O)c3nccnc3C2=O)cc1`, for which the MIC is above 100 µg/mL in assay [3], 10.9 µg/mL (≈ 40.5 µM) in [5], 8 µg/mL (≈ 29.7 µM) in assay [7] and 8.5 µg/mL (≈ 31.6 µM) in [9]. The “-logMIC” value is listed as 4.39 in assay [5] and 4.5 in [9].

As to `O=C1c2nccnc2C(=O)N1c1ccc([N+](=O)[O-])cc1[N+](=O)[O-]`, the inhibition of growth at 10 µM in [1] is -28.1%; in assay [2] it was 6.83%; in assay [4], 3.56%; in assay [6], 11.4%; in assay [8], 3.89%; in assay [10] it was 15.3%. In addition, the minimum inhibitory concentration (MIC) was above 100 µg/mL in assay [3], 10.9 µg/mL (≈ 34.6 µM) in assay [5], 8 µg/mL (≈ 25.4 µM) in assay [7] and 8.4 µg/mL (≈ 26.6 µM) in [9]. Moreover, the entries for the “-logMIC” value in assay [5] and in assay [9] were 4.46 and 4.57, respectively.

With `COc1cc(N2C(=O)c3nccnc3C2=O)cc(OC)c1OC`, the inhibition of growth at 10 µM was 10.2% in assay [1]; 5.86% in [2]; 4.31% in [4]; -2.75% in [6]; 4.82% in [8]; 12.5% in [10]. Further, the MIC in assay [3] was above 100 µg/mL; in assay [5], 9 µg/mL (≈ 28.5 µM); in assay [7], 9 µg/mL (≈ 28.5 µM); in assay [9] it was 8.7 µg/mL (≈ 27.6 µM). In addition, the “-logMIC” value is 4.54 in assay [5] and 4.56 in assay [9].

As for `O=C(O)c1ccc(-n2c(=O)c3ccccc3c3ccccc3c2=O)cc1`, the inhibition of growth at 10 µM was 10.1% in assay [1]; 6.3% in assay [2]; 10.1% in [4]; 11% in assay [6]; 7.66% in [8]; 15.4% in [10]. Further, the MIC in [3] is above 100 µg/mL; in assay [5] it was 4.2 µg/mL (≈ 12.2 µM); in assay [7], 2 µg/mL (≈ 5.83 µM); in assay [9], 2.2 µg/mL (≈ 6.41 µM). The “-logMIC” value in [5] is on record as 4.91; in assay [9], 5.19.

For the compound `O=C(O)c1ccc(N2C(=O)c3cccc4cccc(c34)C2=O)cc1`, the MIC is above 100 µg/mL in assay [3], 3.9 µg/mL (≈ 12.3 µM) in assay [5], 2 µg/mL (≈ 6.3 µM) in [7] and 1.6 µg/mL (≈ 5.04 µM) in assay [9]. Moreover, the “-logMIC” value in assay [5] is 4.91; in assay [9], 5.3.

For `O=C1c2nccnc2C(=O)N1CCN1CCOCC1`, the MIC in assay [3], in assay [5], in assay [7] and in assay [9] was above 100 µg/mL in each case. Besides, the “-logMIC” value in [5] and in assay [9] was 3.42 in each case.

In the case of `O=C1c2nccnc2C(=O)N1c1ccc([N+](=O)[O-])cc1`, the MIC in [3] is above 100 µg/mL; in assay [5], 10.5 µg/mL (≈ 38.9 µM); in [7] it was 8.5 µg/mL (≈ 31.5 µM); in assay [9] it was 8.9 µg/mL (≈ 32.9 µM). In addition, the results for the “-logMIC” value in [5] and in assay [9] were 4.41 and 4.48, respectively.

For the compound `O=c1c2ccccc2c2ccccc2c(=O)n1CCc1ccccn1`, the inhibition of growth at 10 µM in [1] amounted to 13.5%; in assay [2], 8.53%; in assay [4], 28.3%; in assay [6], 13.1%; in assay [8] it was 11.4%; in [10], 32.5%. Also, the MIC in [3], in assay [5], in [7] and in assay [9] was above 100 µg/mL each time. For the same compound, the “-logMIC” value in assay [5] and in [9] was 3.53 in each case.

In the case of `COc1cc(N2C(=O)c3cccc4cccc(c34)C2=O)cc(OC)c1OC`, the MIC is above 100 µg/mL in [3], 2.5 µg/mL (≈ 6.88 µM) in assay [5], 2.2 µg/mL (≈ 6.05 µM) in [7] and 2 µg/mL (≈ 5.5 µM) in assay [9]. In addition, the “-logMIC” value in assay [5] was determined as 5.16; in [9], 5.26.

Turning to `Cc1cc(Cl)c(-n2c(=O)c3ccccc3c3ccccc3c2=O)c(Cl)c1`, the inhibition of growth at 10 µM in assay [1] was found to be 1.58%; in [2], 14.8%; in assay [4] it was 1.96%; in assay [6] it was 10.1%; in assay [8], 1.31%; in assay [10] it was 34.7%. Besides, the MIC was 10 µg/mL (≈ 26.2 µM) in assay [3], 2.6 µg/mL (≈ 6.8 µM) in assay [5], 19.2 µg/mL (≈ 50.2 µM) in assay [7] and 19.5 µg/mL (≈ 51 µM) in assay [9]. Moreover, the “-logMIC” value turned out to be 5.17 in [5] and 4.29 in assay [9].

As for `COc1cc(-n2c(=O)c3ccccc3c3ccccc3c2=O)cc(OC)c1OC`, the MIC in assay [3] was above 100 µg/mL; in assay [5], 2.5 µg/mL (≈ 6.42 µM); in [7], 2.5 µg/mL (≈ 6.42 µM); in [9], 2.5 µg/mL (≈ 6.42 µM). The “-logMIC” value in assay [5] and in assay [9] was 5.19 each time.

For `Cc1cc(Cl)c(N2C(=O)c3nccnc3C2=O)c(Cl)c1`, the MIC was determined as 20 µg/mL (≈ 64.9 µM) in assay [3], 6.9 µg/mL (≈ 22.4 µM) in [5], 20 µg/mL (≈ 64.9 µM) in assay [7] and 20 µg/mL (≈ 64.9 µM) in [9]. Also, the “-logMIC” value in [5] was determined as 4.65; in assay [9], 4.19.

In the case of `CC1(C)S[C@@H]2[C@H](NC(=O)[C@H](N)c3ccccc3)C(=O)N2[C@H]1C(=O)O` [AMPICILLIN], the minimal inhibitory concentration (MIC) worked out at 10 µg/mL (≈ 28.6 µM) in assay [3], 2.2 µg/mL (≈ 6.3 µM) in assay [5], 2.2 µg/mL (≈ 6.3 µM) in assay [7] and 2.2 µg/mL (≈ 6.3 µM) in assay [9].

For the compound `O=C1c2cccc3cccc(c23)C(=O)N1c1c(Cl)cc(Cl)cc1Cl`, the inhibition of growth at 10 µM in assay [2] was 6.09%; in assay [4] it was 3.55%; in assay [6], 39.1%; in assay [8], 4.37%; in [10], 20.9%. The MIC in assay [3] amounted to 10 µg/mL (≈ 26.6 µM); in assay [5] it was 2 µg/mL (≈ 5.31 µM); in assay [7], 20 µg/mL (≈ 53.1 µM); in assay [9] it was 18 µg/mL (≈ 47.8 µM). The “-logMIC” value in [5] came out at 5.27; in [9] it was 4.32.

On to `O=c1c2ccccc2c2ccccc2c(=O)n1CCN1CCOCC1`, for which the MIC in assay [3], in [5], in assay [7] and in assay [9] was above 100 µg/mL throughout. Moreover, the “-logMIC” value in [5] and in assay [9] was 3.52 in each case.

For the compound `O=C1c2nccnc2C(=O)N1CCc1ccccn1`, the inhibition of growth at 10 µM is -3.5% in assay [1]; 2.87% in [4]; 11.8% in assay [6]; 3.84% in assay [8]; 20.9% in assay [10]. In addition, the MIC in [3], in assay [5], in assay [7] and in assay [9] was above 100 µg/mL each time. Also, the “-logMIC” value in [5] and in assay [9] was 3.41 each time.

Take `COc1cc(OC)c(N2C(=O)c3nccnc3C2=O)c(OC)c1`: the MIC in assay [3] was above 100 µg/mL; in assay [5], 9 µg/mL (≈ 28.5 µM); in [7], 9 µg/mL (≈ 28.5 µM); in [9], 8.7 µg/mL (≈ 27.6 µM). Further, the “-logMIC” value in [5] was found to be 4.54; in assay [9], 4.56.

For `O=C1c2cccc3cccc(c23)C(=O)N1c1ccc([N+](=O)[O-])cc1`, the MIC in assay [3] was above 100 µg/mL; in assay [5], 4 µg/mL (≈ 12.6 µM); in assay [7], 2.9 µg/mL (≈ 9.11 µM); in [9] it was 2.9 µg/mL (≈ 9.11 µM). For the same compound, the “-logMIC” value was found to be 4.9 in assay [5] and 5.04 in [9].

For `O=C1c2cccc3cccc(c23)C(=O)N1CCN1CCOCC1`, the MIC in [3], in assay [5], in assay [7] and in assay [9] was above 100 µg/mL in each case. Moreover, the “-logMIC” value in assay [5] and in [9] was 3.49 throughout.

`O=C1c2cccc3cccc(c23)C(=O)N1c1ccc([N+](=O)[O-])cc1[N+](=O)[O-]`: the MIC is above 100 µg/mL in assay [3], 4 µg/mL (≈ 11 µM) in assay [5], 2.2 µg/mL (≈ 6.06 µM) in assay [7] and 1.8 µg/mL (≈ 4.95 µM) in [9]. The figures for the “-logMIC” value in assay [5] and in [9] were 4.96 and 5.31, respectively.

As for `COc1cc(OC)c(-n2c(=O)c3ccccc3c3ccccc3c2=O)c(OC)c1`, the MIC in [3] is above 100 µg/mL; in [5] it was 2.5 µg/mL (≈ 6.42 µM); in assay [7] it was 2.5 µg/mL (≈ 6.42 µM); in assay [9], 2.5 µg/mL (≈ 6.42 µM). Also, the “-logMIC” value in assay [5] and in assay [9] was 5.19 throughout.
